The structures appear in SMILES notation. Values joined by “and” are separate entries in the source; they are usually repeats but may differ in a detail not shown here. Equal values may be shown once.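 Cultured in 96-well plates, cells were exposed to test compound for 48 hours across five concentrations. The concentration for 50% growth inhibition is given as GI50. TGI denotes the concentration required for complete inhibition of growth.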

The record followed here is PubChem BioAssay (NCI).

Assay in all cases: NCI tumour cell line growth inhibition, 48 h
In test [1] the test system is OVCAR-5 ovarian.
Test [2] relates to SK-OV-3 ovarian.
Test [3] has as its system SF-268 CNS.
Test [4] concerns MCF7 breast.
The subject of test [5] is U251 CNS.
Test [6] concerns UACC-62 melanoma.
Test [7] relates to OVCAR-8 ovarian.
Test [8] deals with SK-MEL-5 melanoma.
The test system of test [9] is HL-60(TB) leukemia.
For test [10], the system named is RXF 393 renal.

Consider `CCCC(=O)NNc1[nH]c(-c2ccc(OC)cc2)cc1C(=O)OCC`, for which the GI50 in test [1] is 23.7 µM; in test [2] it was above 100 µM; in test [3], 14.6 µM; in [4], 17.7 µM; in [5], 29.5 µM; in test [6], 16.4 µM. The GI50 in test [7] was 17.8 µM; in [8] it was 18.5 µM; in test [9], 3.1 µM; in [10], 22 µM. Moreover, the TGI in test [1] was 44.4 µM; in test [2], above 100 µM; in test [3] it was 31 µM; in [4], 35.3 µM; in [5], above 100 µM; in [6] it was 30 µM. Besides, the TGI in [7] was found to be 48.3 µM; in test [8] it was 33.2 µM; in test [9], 93.2 µM; in [10], 45.1 µM.

Turning to `CN(CCC(=O)O)S(=O)(=O)c1ccccc1`, the TGI in [1], in test [2], in [3], in test [4], in [5] and in test [6] was above 100 µM in each case. For the same compound, the TGI in [7], in test [8], in test [9] and in test [10] was above 100 µM throughout.

Consider `C/C(=C\c1ccn(-c2ccc(N)cc2)n1)[C@@H]1C[C@@H]2O[C@]2(C)CCC[C@H](C)[C@H](O)[C@@H](C)C(=O)C(C)(C)[C@@H](O)CC(=O)O1`, for which the GI50 in test [1] is 0.107 µM; in test [2], 0.226 µM; in test [3] it was 0.118 µM; in test [4], 0.0152 µM; in [5] it was 0.0321 µM; in [6] it was 0.157 µM. Besides, the GI50 in test [7] was 0.0481 µM; in test [8] it was 0.0308 µM; in [9], 0.0437 µM; in test [10] it was 0.0478 µM. Further, the TGI in [1], in [2], in [3], in [4], in [5] and in [6] was above 50 µM in each case. For the same compound, the TGI was above 50 µM in test [7], above 50 µM in [8], above 50 µM in test [9] and 0.406 µM in test [10].

For the compound `CC(C)=CCC/C(C)=C/CC/C(=C/COP(=O)(OCc1ccc([N+](=O)[O-])o1)N(C)CCCCCl)C(C)(C)C` (configuration not stated), the GI50 in test [1] is 16.2 µM; in [2] it was 18.1 µM; in test [3], 3.69 µM; in test [4], 2.47 µM; in test [5], 1.76 µM; in test [6] it was 9.21 µM. The GI50 is 10.7 µM in test [7], 3.29 µM in test [8], 4.18 µM in [9] and 7.84 µM in [10]. Moreover, the TGI in test [1] was 32.8 µM; in test [2], 38.7 µM; in test [3], 19.3 µM; in test [4], 18.6 µM; in test [5], 12 µM; in test [6] it was 23.5 µM. Further, the TGI is 36.1 µM in test [7], 11.4 µM in test [8], above 100 µM in [9] and 26.5 µM in test [10].

Take `Cn1cnc2c(NCc3ccccc3)nc(NCCO)nc21`: the TGI was above 217 µM in [1]; above 460 µM in test [2]; > 91.2 µM and 223 µM in test [3]; 90.4 µM and > 268 µM in test [4]; above 500 µM in test [5]; > 89.9 µM and 302 µM in test [6]. Moreover, the TGI in test [7] was 391 µM; in test [8], 220 µM; in test [9] it was > 73 µM and 220 µM; in test [10], 40.4 µM and 187 µM. Besides, the GI50 in test [2] was 241 µM; in [3], 86.2 µM; in test [4], 62.9 µM; in test [5], 133 µM; in test [6], 67.5 µM; in [7], 90.5 µM. Also, the GI50 in test [8] is 96.4 µM; in [9], 73.2 µM; in test [10], 17.7 µM.

Regarding `Cc1ccc(C(=O)NC2CCCCC2)cc1-c1ccc(C(=O)NCC2CC2)cc1`, the GI50 was above 25 µM in [1]; above 25 µM in test [2]; above 25 µM in test [3]; above 23.9 µM in test [4]; above 25 µM in [5]; 17 µM in test [6]. Further, the GI50 was above 25 µM in test [7], 19.9 µM in test [8], above 25 µM in test [9] and above 25 µM in test [10]. Moreover, the TGI in test [1], in test [2], in test [3], in [4], in test [5] and in [6] was above 25 µM throughout. The TGI in test [7], in test [8], in [9] and in test [10] was above 25 µM each time.

Take `CO[C@H]1CC[C@@]2(C)C(=CC[C@H]3[C@@H]4C[C@H](O)C[C@@]4(C)CC[C@@H]32)C1`: the GI50 in test [1] was 20.2 µM; in test [2] it was 4.46 µM; in test [3] it was 6.42 µM; in [4], 5.32 µM; in [5], 3.54 µM; in test [6] it was 3.88 µM. Further, the GI50 in test [7] is 5.14 µM; in test [8], 3.23 µM; in [9] it was 3.69 µM; in test [10] it was 2.49 µM. In addition, the TGI is 44.1 µM in [1]; 49 µM in test [2]; 21.4 µM in [3]; 25.3 µM in [4]; 15 µM in test [5]; 16.9 µM in [6]. The TGI in test [7] turned out to be 19.2 µM; in test [8] it was 13.1 µM; in [9], 66.7 µM; in test [10], 6.57 µM.

As for `Cc1ccc(NC(=O)c2ccnc(N3CCCC3)c2)cc1-c1ccc(C(=O)NCC2CC2)cc1`, the GI50 in test [1], in test [2], in test [3], in test [4], in test [5] and in test [6] was above 25 µM in each case. The GI50 in test [7], in test [8] and in test [9] was above 25 µM throughout. Besides, the TGI in [1], in test [2], in [3], in test [4], in [5] and in test [6] was above 25 µM in each case. The TGI in test [7], in test [8], in test [9] and in test [10] was above 25 µM throughout.

As to `NC(=O)Oc1cc(OC(N)=O)cc(N(CCCl)CCCl)c1`, the GI50 in [1] was 4.35 µM; in test [2], 13.1 µM; in test [3], 1.88 µM; in test [4], 1.09 µM; in [5], 2.24 µM; in test [6], 4.1 µM. In addition, the GI50 in [7] is 5.74 µM; in test [8], 6.93 µM; in [9], 1.58 µM; in [10] it was 1.98 µM. For the same compound, the TGI is 30 µM in [1]; above 100 µM in test [2]; 29.4 µM in test [3]; 47.4 µM in test [4]; 54.9 µM in test [5]; 18.4 µM in test [6]. Besides, the TGI in test [7] is 67.6 µM; in test [8], 52.5 µM; in test [9] it was above 100 µM; in test [10], 5.4 µM.

Take `COC1CC2CCC(C)[C@](O)(O2)C(=O)C(=O)N2CCCCC2C(=O)OC(C(C)CC2CCC(O)C(OC)C2)CC(=O)C(C)C=C(C)C(OC(=O)CN(C)C)C(OC)C(=O)C(C)CC(C)/C=C/C=C/C=C\1C` (some centres not stated): the TGI in [1] is 26.4 µM; in [2], 20 µM; in [3], 14.8 µM; in test [4] it was 17.6 µM; in test [5], 18.2 µM; in test [6], 20.2 µM. Moreover, the TGI in [7] was 62.5 µM; in test [8], 19.8 µM; in test [9], 6.38 µM; in test [10], 15.5 µM.

`O=C(/C=C\Sc1nccc(C(F)(F)F)n1)c1ccc(Br)cc1`: the GI50 is 21.8 µM in test [1]; above 100 µM in [2]; 33.2 µM in test [3]; 28 µM in test [4]; 25 µM in test [5]; 23.6 µM in test [6]. Besides, the GI50 in [7] was 45.9 µM; in [8], 37.9 µM; in [9] it was 0.84 µM; in test [10], 18.5 µM. For the same compound, the TGI was 70.7 µM in [1]; above 100 µM in test [2]; above 100 µM in [3]; 84.8 µM in test [4]; 72.8 µM in test [5]; 60.7 µM in test [6]. The TGI is above 100 µM in [7], above 100 µM in test [8], 20.8 µM in test [9] and 40.9 µM in [10].

As for `Cn1cc(C2=C(c3c4n(c5ccccc35)CCC(CN)CC4)C(=O)NC2=O)c2ccccc21` (configuration not stated), the GI50 was 3.51 µM in test [1]; 4.99 µM in [2]; 4.02 µM in [3]; 3.48 µM in test [4]; 3.74 µM in [5]; 3.65 µM in [6]. The GI50 is 4.82 µM in test [7], 3.99 µM in test [8], 5.22 µM in [9] and 3.65 µM in test [10]. The TGI in test [1] stood at 9.14 µM; in test [2], 11.6 µM; in [3], 7.7 µM; in test [4], 7.41 µM; in test [5] it was 7.21 µM; in [6] it was 7.28 µM. Further, the TGI was 9.8 µM in test [7], 7.59 µM in test [8], 11.5 µM in [9] and 7.1 µM in test [10].

`O=C1/C(=C/c2ccc(Cl)cc2)CN(C(=O)C(Cl)Cl)C/C1=C\c1ccc(Cl)cc1`: the GI50 in test [1] was 0.287 µM; in [2], 0.531 µM; in test [3] it was 0.315 µM; in test [4], 0.0441 µM; in test [5] it was 0.052 µM; in test [6], 0.19 µM. The GI50 in [7] is 0.22 µM; in test [8], 0.231 µM; in [9], 0.291 µM; in test [10] it was 0.18 µM. Besides, the TGI in test [1] is 0.799 µM; in [2], 1.74 µM; in [3] it was 1.48 µM; in test [4], 0.56 µM; in test [5], 0.186 µM; in test [6], 0.426 µM. In addition, the TGI is 1.44 µM in [7], 0.58 µM in [8] and 0.378 µM in test [10].

For the compound `O=C(O)CC1(C(=O)O)CCCCC1`, the TGI in test [1], in test [2], in test [3], in test [4], in test [5] and in test [6] was above 100 µM throughout. For the same compound, the TGI in [7], in test [8], in test [9] and in test [10] was above 100 µM in each case.

For `CC(=O)OCC1OC(S[As](C)C)C(OC(C)=O)C1OC(C)=O` (configuration not stated), the GI50 in test [1] is 0.481 µM; in [2], 1.14 µM; in test [3], 1.31 µM; in test [4], 0.304 µM; in [5] it was 0.546 µM; in test [6] it was 0.357 µM. The GI50 in [7] is 0.272 µM; in [8] it was 0.162 µM; in [9], 0.0813 µM; in [10], 0.455 µM. The TGI in test [1] was determined as 2.17 µM; in test [2], 7.71 µM; in [3] it was 7.53 µM; in [4] it was 1.11 µM; in test [5], 2.72 µM; in [6] it was 1.52 µM. The TGI in [7] came to 1.57 µM; in test [8], 0.385 µM; in [9], 0.648 µM; in test [10], 2.31 µM.

Regarding `O=C(O)c1cccc(CC(Br)C(=O)O)c1` (configuration not stated), the TGI in test [1], in [2], in [3], in test [4], in test [5] and in test [6] was above 100 µM throughout. In addition, the TGI in test [7], in [8], in test [9] and in test [10] was above 100 µM in each case.
